The source of these data is patent US10155727B2, “Pyrazoles” (Janssen Pharmaceuticals, Inc., priority 2014, dated 2018).

As a reminder, the IC50 is the concentration at which inhibition is half-maximal.

For one assay, the target named is rat NR1/NR2B receptor (Rattus norvegicus (Rat), UniProt P35439+Q00960). The assay can be described thus: NR2B binding assay: inhibition of specific [3H]-Ifenprodil binding to the rat NR1/NR2B receptor. Conditions: for inhibition at 10 µM: read-out: % INH @ 10 μM; for inhibition at 1 µM: read-out: % INH @ 1 μM. The protocol: Biological Assays Inhibition of Specific Binding to the Rat NR1/NR2B Receptor
Chain of rat NR1/NR2B receptor (Q00960 27-1482, other chains not shown): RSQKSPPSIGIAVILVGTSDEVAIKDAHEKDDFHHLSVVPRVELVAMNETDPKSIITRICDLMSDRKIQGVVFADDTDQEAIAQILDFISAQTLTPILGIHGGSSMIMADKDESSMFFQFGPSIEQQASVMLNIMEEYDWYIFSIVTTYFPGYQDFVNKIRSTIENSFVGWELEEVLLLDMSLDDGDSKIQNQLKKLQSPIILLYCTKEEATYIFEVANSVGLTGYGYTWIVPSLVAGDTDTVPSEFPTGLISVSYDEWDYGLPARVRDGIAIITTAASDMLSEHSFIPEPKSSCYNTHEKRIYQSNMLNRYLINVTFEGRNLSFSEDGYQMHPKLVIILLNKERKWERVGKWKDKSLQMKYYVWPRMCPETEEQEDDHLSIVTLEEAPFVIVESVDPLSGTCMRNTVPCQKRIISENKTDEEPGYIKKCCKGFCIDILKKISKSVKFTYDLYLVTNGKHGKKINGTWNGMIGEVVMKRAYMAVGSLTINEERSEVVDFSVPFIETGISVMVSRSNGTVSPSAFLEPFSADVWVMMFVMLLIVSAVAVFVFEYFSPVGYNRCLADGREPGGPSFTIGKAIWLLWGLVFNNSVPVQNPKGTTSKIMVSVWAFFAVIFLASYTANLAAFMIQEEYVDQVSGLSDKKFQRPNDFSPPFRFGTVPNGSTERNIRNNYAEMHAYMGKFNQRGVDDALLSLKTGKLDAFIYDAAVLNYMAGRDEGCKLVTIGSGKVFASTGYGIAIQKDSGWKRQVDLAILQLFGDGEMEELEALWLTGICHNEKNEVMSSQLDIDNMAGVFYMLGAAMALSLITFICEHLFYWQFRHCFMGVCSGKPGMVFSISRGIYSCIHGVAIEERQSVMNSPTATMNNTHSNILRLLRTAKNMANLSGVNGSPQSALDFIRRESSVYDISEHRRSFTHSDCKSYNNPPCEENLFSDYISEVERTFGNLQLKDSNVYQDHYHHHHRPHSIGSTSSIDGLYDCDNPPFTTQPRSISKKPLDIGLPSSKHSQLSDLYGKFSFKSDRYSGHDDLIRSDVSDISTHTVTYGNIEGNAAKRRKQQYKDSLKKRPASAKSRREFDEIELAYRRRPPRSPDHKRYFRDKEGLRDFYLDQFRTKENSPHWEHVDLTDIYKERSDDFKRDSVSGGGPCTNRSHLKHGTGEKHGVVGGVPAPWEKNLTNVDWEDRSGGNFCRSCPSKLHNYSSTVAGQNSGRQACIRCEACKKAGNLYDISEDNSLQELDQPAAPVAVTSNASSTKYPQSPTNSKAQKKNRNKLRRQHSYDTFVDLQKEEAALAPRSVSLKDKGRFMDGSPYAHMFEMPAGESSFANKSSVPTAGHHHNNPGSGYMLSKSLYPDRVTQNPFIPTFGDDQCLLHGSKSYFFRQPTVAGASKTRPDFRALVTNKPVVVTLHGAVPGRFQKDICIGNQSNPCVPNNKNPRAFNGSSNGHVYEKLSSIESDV
Male Wistar rats (180 to 200 g) were killed by suffocation in a CO2 chamber for two minutes. Whole brains without cerebellum were removed and dissected on ice, placed into closed vials and stored at −70° C.
Membrane fractions were prepared and tested using standard techniques. At the time of the assay, 1 g of the brains was placed into 25 ml of 50 mM Tris/10 mM EDTA buffer, pH 7.1, (25 vol. per g of original tissue) and homogenized for 30 sec at 20000 rpm with an Ultraturrax T25 (Jahnke & Kunkel, IKA-Labortechnik, Staufen, Germany).
The supernatant was discarded and the pellet was homogenized on ice for 30 sec at 20000 rpm with an Ultraturrax and again centrifuged at 48000 g for 30 minutes at 4° C. The resultant pellet was resuspended in 25 ml of 50 mM Tris/10 mM EDTA buffer, homogenized for 30 sec with an Ultraturrax, aliquoted, frozen at −70° C. and stored until use.
After thawing on the day of the assay, a 5 ml membrane aliquot was centrifuged at 48000 g for 30 min at 4° C. The pellet was resuspended in 5 ml of 5 mM Tris/1 mM EDTA buffer, pH 7.4, homogenized for 30 sec at 20000 rpm with an Ultraturrax and centrifuged at 48000 g for 30 min at 4° C. This was repeated twice. The final pellet was homogenized in 5 ml of 5 mM Tris/1 mM EDTA buffer at 4° C. with an Ultraturrax and used for the Ifenprodil-binding assay as described in the following.
Nonspecific binding was estimated in the presence of […] CP101.606. The samples were incubated for 60 min. at 4° C.
The incubation was terminated by filtration of the membrane preparations using Filtermat B (Pharmacia, Uppsala Sweden) and a Micro Cell Harvester (Skatron, Lier, Norway). The Filtermat B had been presoaked with 1% polyethylene imine and carefully washed with 50 mM Tris/HCl-buffer pH 7.7 after the filtration to separate free and bound radioactivity.
The optimal amount of membrane preparation in the assay was determined and optimized for each membrane preparation separately before the test.
For pipetting of the incubation mixture the robot Biomek2000 (Fa. Beckman) was used.
For determination of IC50 values the Hill-plot, 2-parameter-model was used.

A further assay concerns the target hERG receptor (Homo sapiens (Human), UniProt Q12809). The experiment in a line: HERGBD: inhibition of specific [3H]-Dofetilide binding to the hERG receptor. As to the method:
Inhibition of Specific Binding to the hERG—Receptor (HERGBD)
A HEK cell line with stable transfected human ERG receptor was used for the assay. The cells were grown adherently and maintained in DULBECCOS' MEM medium with 10% FBS, 1% non-essential amino acids, 1% Penicillin/Streptomycin and 400 μg/ml G418 (Calbiochem).
For binding assays and membrane preparations the cell culture medium was removed, cells were washed with PBS. Crude membranes for radioligand binding experiments were prepared by scraping the cells off the dishes in ice cold 20 mM HEPES/0.1 mM KCl/pH 7.2. The cell suspension was homogenized on ice (Ultra turrax, 3×20 sec.) and the homogenate was spun for 10 min (1° C., 1000 g, OPTIMA, SW28, 2800 U/min). The supernatant was than centrifuged for 40 min at 100000 g (1° C., OPTIMA, SW28, 23000 U/min). The membrane pellet was re-suspended in 20 mM HEPES/0.1 mM KCl pH 7.2, frozen and stored at −80° C.
After thawing on the day of the assay, the membrane suspension was diluted further with 20 mM HEPES/0.1 mM KCl/pH 7.2.
The incubation mixture of 200 μl contained 1.5 nmol/l 3H-Dofetilide, optimized amount of membrane preparation, 20 mM HEPES/0.1 mM KCl/(pH 7.2) and inhibitor in 1% DMSO. Nonspecific binding was estimated in the presence of […] Dofetilide. The samples were incubated for 90 min. at RT.
Binding was terminated by filtration of the incubated membrane preparations using Filtermat B (Pharmacia, Uppsala Sweden) and a Micro Cell Harvester (Skatron, Lier, Norway). The Filtermat B had been presoaked with 1% polyethylen imine and carefully washed with 0.05 M Tris/HCl-buffer pH=7.7 after the filtration to separate free and bound radioactivity. The filters were counted in a scintillation counter (Betaplate 1205, Berthold, Wildbad, Germany) in order to determine the specific binding of [^3H]-Dofetilide.
The optimal amount of membrane preparation in the assay was determined and optimized for each membrane preparation separately in front of using the membranes in compound testing.
For pipetting of the incubation mixture we routinely use the robot Biomek2000 (Fa. Beckman).
In general terms: The hERG channel carries a current that helps repolarise heart muscle cells.

Setting [1] is: [3H]-Ifenprodil binding, rat brain membranes.
Where [2] appears, read: [3H]-Dofetilide binding, membranes of HEK cells with human ERG receptor, read-out: IC50.
Where [3] appears, read: 1 μM test compound, [3H]-Ifenprodil binding, rat brain membranes.

Counter-ions that a name gives are not always drawn. Like-named read-outs stand apart in the source and are kept apart here.

Chain of hERG receptor (Q12809 whole entry): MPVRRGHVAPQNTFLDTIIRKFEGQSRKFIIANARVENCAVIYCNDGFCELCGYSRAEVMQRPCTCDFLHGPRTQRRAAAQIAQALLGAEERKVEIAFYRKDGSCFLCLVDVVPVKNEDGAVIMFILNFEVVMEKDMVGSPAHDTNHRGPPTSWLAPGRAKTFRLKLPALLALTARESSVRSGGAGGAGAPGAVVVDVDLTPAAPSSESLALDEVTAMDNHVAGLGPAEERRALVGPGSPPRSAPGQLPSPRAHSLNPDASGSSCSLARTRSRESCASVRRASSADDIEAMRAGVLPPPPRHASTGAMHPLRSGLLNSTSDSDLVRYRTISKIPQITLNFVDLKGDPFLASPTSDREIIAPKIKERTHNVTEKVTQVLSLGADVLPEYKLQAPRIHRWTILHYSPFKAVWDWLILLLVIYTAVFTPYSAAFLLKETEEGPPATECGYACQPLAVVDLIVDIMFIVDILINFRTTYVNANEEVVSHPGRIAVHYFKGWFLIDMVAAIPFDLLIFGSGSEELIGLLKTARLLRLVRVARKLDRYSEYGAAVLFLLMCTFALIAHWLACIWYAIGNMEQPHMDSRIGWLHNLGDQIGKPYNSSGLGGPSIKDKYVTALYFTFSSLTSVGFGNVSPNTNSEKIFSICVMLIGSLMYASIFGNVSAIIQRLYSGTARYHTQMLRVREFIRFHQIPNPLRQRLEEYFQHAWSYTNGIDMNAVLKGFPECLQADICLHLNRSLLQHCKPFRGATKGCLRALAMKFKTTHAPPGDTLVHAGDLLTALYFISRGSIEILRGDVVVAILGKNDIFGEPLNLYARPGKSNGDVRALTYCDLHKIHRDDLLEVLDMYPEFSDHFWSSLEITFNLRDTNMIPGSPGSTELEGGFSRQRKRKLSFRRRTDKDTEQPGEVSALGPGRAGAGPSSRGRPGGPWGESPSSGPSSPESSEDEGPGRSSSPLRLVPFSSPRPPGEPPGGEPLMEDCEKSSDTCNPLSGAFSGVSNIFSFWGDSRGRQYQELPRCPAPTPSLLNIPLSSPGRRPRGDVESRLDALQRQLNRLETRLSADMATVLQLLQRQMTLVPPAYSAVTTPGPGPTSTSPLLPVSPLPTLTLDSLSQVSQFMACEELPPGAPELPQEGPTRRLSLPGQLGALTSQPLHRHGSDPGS

As to `Cn1nccc1-n1cc(-c2ccc(F)c(Cl)c2)cn1` [Example 101, 4-(3-chloro-4-fluorophenyl)-2′-methyl-2′H-1,3′-bipyrazole], the concentration for half-maximal inhibition (IC50) at rat NR1/NR2B receptor (setting [1]) amounted to 5.6 µM; on hERG receptor it was 118 µM.
As for `CCn1cncc1Cn1cc(-c2ccc(Cl)c(C(F)F)c2)cn1` [Example 95, 4-(4-chloro-3-(difluoromethyl)phenyl)-1-((1-ethyl-1H-imidazol-5-yl)methyl)-1H-pyrazole], the IC50 was found to be 0.0635 µM on rat NR1/NR2B receptor (setting [1]) and 6.36 µM on hERG receptor (setting [2]).
For `FS(F)(F)(F)(F)c1cccc(-c2cnn(Cc3cc[nH]n3)c2)c1` [Example 72, 1-((1H-pyrazol-3-yl)methyl)-4-(3-(pentafluoro-16-sulfanyl)phenyl)-1H-pyrazole Succinate], the IC50 on rat NR1/NR2B receptor (setting [1]) was found to be 0.0951 µM; at hERG receptor, 44.7 µM.
Regarding `COc1cc(F)ccc1-c1cnn(Cc2cc(C)nn2C)c1` [Example 68, 5-[[4-(4-fluoro-2-methoxy-phenyl)pyrazol-1-yl]methyl]-1,3-dimethyl-pyrazole Succinate], the inhibition at 10 µM on rat NR1/NR2B receptor (10 μM test compound, [3H]-Ifenprodil binding, rat brain membranes) turned out to be 26.3%. On rat NR1/NR2B receptor, the inhibition at 1 µM stood at 8.7%. Moreover, the IC50 at hERG receptor (setting [2]) is 93.6 µM.
Turning to `Cn1ccc(Cn2cc(-c3ccccn3)cn2)n1` [Example 104, 2-(1-((1-methyl-1H-pyrazol-3-yl)methyl)-1H-pyrazol-4-yl)pyridine Succinate], the inhibition at 1 µM at rat NR1/NR2B receptor (setting [3]) came to 20.9%. Further, the inhibition at 10 µM at rat NR1/NR2B receptor is -0.6%. Besides, the IC50 at hERG receptor (setting [2]) was more than 100 µM.
Take `Cc1n[nH]c(C)c1CCn1cc(-c2ccc(F)c(C(F)F)c2)cn1` [Example 36, 4-[2-[4-[3-(Difluoromethyl)-4-fluoro-phenyl]pyrazol-1-yl]ethyl]-3,5-dimethyl-1H-pyrazole]: the results for the IC50 on rat NR1/NR2B receptor (setting [1]) and at hERG receptor were 0.424 µM and 29.6 µM, respectively.
In the case of `Cn1nccc1-n1cc(-c2ccc(Cl)c(Cl)c2)cn1` [Example 100, 4-(3,4-dichlorophenyl)-2′-methyl-2′H-1,3′-bipyrazole], the values for the IC50 at rat NR1/NR2B receptor (setting [1]) and on hERG receptor (setting [2]) were 3.17 µM and 60.3 µM, respectively.
In the case of `CCn1ccc(Cn2cc(-c3ccc(F)c(C(F)F)c3)cn2)n1` [Example 38, 3-[[4-[3-(Difluoromethyl)-4-fluoro-phenyl]pyrazol-1-yl]methyl]-1-ethyl-pyrazole], the concentration for half-maximal inhibition (IC50) is 0.443 µM at rat NR1/NR2B receptor (setting [1]) and more than 100 µM on hERG receptor.
`Cc1cc(Cn2cc(-c3ccc(Cl)c(OC(F)F)c3)cn2)[nH]n1` [Example 13, 4-[4-Chloro-3-(difluoromethoxy)phenyl]-1-[(3-methyl-1H-pyrazol-5-yl)methyl]pyrazole]: the results for the IC50 at rat NR1/NR2B receptor (setting [1]) and on hERG receptor were 0.0221 µM and 37 µM, respectively.
The corresponding values for `Fc1cc(-c2cnn(Cc3cc[nH]n3)c2)cc(C(F)F)c1` [Example 47, 4-[3-(difluoromethyl)-5-fluoro-phenyl]-1-(1H-pyrazol-3-ylmethyl) pyrazole Succinate] are 0.203 µM and more than 100 µM.
In the case of `Cn1nccc1Cn1cc(-c2ccc(Cl)c(OC(F)F)c2)cn1` [Example 5, 4-[4-Chloro-3-(difluoromethoxy)phenyl]-1-[(2-methylpyrazol-3-yl)methyl]pyrazole], the IC50 was 0.148 µM at rat NR1/NR2B receptor (setting [1]) and 64.3 µM on hERG receptor.
The corresponding values for `Cn1ccc(Cn2cc(-c3ccc(Cl)c(C(F)(F)F)c3)cn2)n1` [Example 30, 3-[[4-[4-chloro-3-(trifluoromethyl)phenyl]pyrazol-1-yl]methyl]-1-methyl-pyrazole] are 1.01 µM and 3.47 µM.
With `Cc1cc(-c2cnn(Cc3ccn(C)n3)c2)ccc1Cl` [Example 58, 3-[[4-(4-chloro-3-methyl-phenyl)pyrazol-1-yl]methyl]-1-methyl-pyrazole Succinate], the IC50 at rat NR1/NR2B receptor (setting [1]) came out at 0.668 µM; on hERG receptor (setting [2]) it was 12.6 µM.
With `Clc1ccc(-c2cnn(Cc3cc[nH]n3)c2)cc1` [Example 77, 4-(4-Chlorophenyl)-1-(1H-pyrazol-3-ylmethyl)pyrazole], the IC50 at rat NR1/NR2B receptor (setting [1]) is 1.04 µM; on hERG receptor, 16.9 µM.
The corresponding values for `Cn1cc(Cn2cc(-c3ccc(F)c(C(F)F)c3)cn2)cn1` [Example 33, 4-[3-(Difluoromethyl)-4-fluoro-phenyl]-1-[(1-methylpyrazol-4-yl)methyl]pyrazole] are 0.371 µM and more than 100 µM.
Take `CC(F)(F)c1cccc(-c2cnn(Cc3cc[nH]n3)c2)c1` [Example 93, 3-[[4-(3-(1,1-difluoroethyl)-phenyl)pyrazol-1-yl]methyl]-1H-pyrazole Maleate]: the IC50 on rat NR1/NR2B receptor (setting [1]) was found to be 0.0252 µM; at hERG receptor (setting [2]) it was 129 µM.
As for `Fc1ccc(-c2cnn(Cc3cc(Cn4ccc(-c5ccc(F)c(C(F)F)c5)n4)n[nH]3)c2)cc1C(F)F` [Example 103, 3-(3-(difluoromethyl)-4-fluorophenyl)-1-((5-((4-(3-(difluoromethyl)-4-fluorophenyl)-1H-pyrazol-1-yl)methyl)-1H-pyrazol-3-yl)methyl)-1H-pyrazole], on rat NR1/NR2B receptor (setting [3]), the inhibition at 1 µM worked out at 15.5%. The compound also gave an IC50 on hERG receptor of more than 10 µM.
For the compound `FC(F)Oc1cc(-c2cnn(Cc3ccn(C4CCCC4)n3)c2)ccc1Cl` [Example 12, 3-[[4-[4-Chloro-3-(difluoromethoxy)phenyl]pyrazol-1-yl]methyl]-1-cyclopentyl-pyrazole], the IC50 was 0.28 µM on rat NR1/NR2B receptor (setting [1]) and 8.06 µM at hERG receptor.
The corresponding values for `Cn1nccc1Cn1cc(-c2ccc(Cl)cc2)cn1` [Example 76, 4-(4-Chlorophenyl)-1-[(2-methylpyrazol-3-yl)methyl]pyrazole] are 7.35 µM and 120 µM.
With `Cn1ccc(Cn2cc(-c3ccc(F)c(Cl)c3)cn2)n1` [Example 61, 3-[[4-(3-chloro-4-fluoro-phenyl)pyrazol-1-yl]methyl]-1-methyl-pyrazole Succinate], the half-inhibitory concentration (IC50) on rat NR1/NR2B receptor (setting [1]) is 1.38 µM; at hERG receptor it was 24.7 µM.
The matching figures for `Cc1n[nH]c(C)c1Cn1cc(-c2ccc(F)c(C(F)F)c2)cn1` [Example 89, 4-[[4-(3-difluoromethyl-4-fluoro-phenyl)pyrazol-1-yl]methyl]-3,5-dimethyl-1H-pyrazole]: 0.736 µM and 88.2 µM.
Turning to `Cn1ccc(Cn2cc(-c3ccc(Cl)c(C(F)F)c3)cn2)n1` [Example 24, 3-[[4-[4-chloro-3-(difluoromethyl)phenyl]pyrazol-1-yl]methyl]-1-methyl-pyrazole], the IC50 on rat NR1/NR2B receptor (setting [1]) amounted to 0.41 µM; at hERG receptor (setting [2]), 4.89 µM.
Turning to `Cc1n[nH]c(C)c1CCn1cc(-c2ccc(Cl)cc2)cn1` [Example 73, 4-[2-[4-(4-chlorophenyl)pyrazol-1-yl]ethyl]-3,5-dimethyl-1H-pyrazole], the values for the IC50 at rat NR1/NR2B receptor (setting [1]) and at hERG receptor were 1.16 µM and 98 µM, respectively.
The matching figures for `Cn1cc(Cn2cc(-c3ccc(F)c(C(C)(F)F)c3)cn2)cn1` [Example 45, 4-[3-(1,1-difluoroethyl)-4-fluoro-phenyl]-1-[(1-methylpyrazol-4-yl)methyl]pyrazole Succinate]: 0.261 µM and 67.8 µM.
